Test results taken from ChEMBL document CHEMBL1909046, “DrugMatrix in vitro pharmacology data”.

Assays:
[1] = target: T1, Muscarinic acetylcholine receptor M4 (Homo sapiens, UniProt P08173); type: cell membranes, CHO-K1, Membrane; settings: for Ki: read-out: Ki; as to all read-outs here: in other assays of this panel Not Active means under 50% inhibition at 10 µM
T1 sequence (P08173 whole entry): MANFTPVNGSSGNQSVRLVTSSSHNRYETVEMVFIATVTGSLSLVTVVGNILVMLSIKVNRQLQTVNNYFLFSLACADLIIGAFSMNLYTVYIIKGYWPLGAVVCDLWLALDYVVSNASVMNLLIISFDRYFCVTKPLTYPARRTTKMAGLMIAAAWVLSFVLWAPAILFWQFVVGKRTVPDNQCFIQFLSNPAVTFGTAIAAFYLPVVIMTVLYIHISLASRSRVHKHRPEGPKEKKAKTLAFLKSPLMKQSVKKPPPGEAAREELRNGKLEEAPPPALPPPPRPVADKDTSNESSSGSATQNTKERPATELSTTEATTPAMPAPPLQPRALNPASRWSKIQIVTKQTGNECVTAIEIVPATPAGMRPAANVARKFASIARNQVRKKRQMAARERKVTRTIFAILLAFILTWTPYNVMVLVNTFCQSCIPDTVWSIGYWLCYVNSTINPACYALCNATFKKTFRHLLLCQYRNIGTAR

[2] = DRUGMATRIX: Imidazoline I2, Central radioligand binding (ligand: [3H] Idazoxan); type: cell membranes, Rattus norvegicus, Wistar, Cerebral cortex, Membrane; settings: Not Active = under 50% inhibition at 10 µM
Estrogen receptor beta = Estrogen receptor beta (Homo sapiens, UniProt Q92731); settings: sf9; also: in other assays of this panel Not Active means under 50% inhibition at 10 µM
[3] = target: T2, C-X-C chemokine receptor type 1 (Homo sapiens, UniProt P25024); also: in other assays of this panel Not Active means under 50% inhibition at 10 µM
T2 sequence (P25024 whole entry): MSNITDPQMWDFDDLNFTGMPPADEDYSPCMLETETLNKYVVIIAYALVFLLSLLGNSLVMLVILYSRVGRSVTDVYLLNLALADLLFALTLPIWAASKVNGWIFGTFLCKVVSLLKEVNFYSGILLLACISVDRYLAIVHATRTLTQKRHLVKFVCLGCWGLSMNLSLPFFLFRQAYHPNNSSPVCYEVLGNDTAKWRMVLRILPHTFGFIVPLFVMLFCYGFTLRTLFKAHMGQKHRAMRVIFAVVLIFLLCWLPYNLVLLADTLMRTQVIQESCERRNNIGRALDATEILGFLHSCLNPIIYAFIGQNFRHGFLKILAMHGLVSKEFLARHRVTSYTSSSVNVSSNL

D(3) dopamine receptor = D(3) dopamine receptor (Homo sapiens, UniProt P35462); assay: DRUGMATRIX: Dopamine D3 radioligand binding (ligand: [3H] Spiperone); type: cell membranes, CHO, Membrane; settings: for Ki: read-out: Ki
[4] = target: T3, C-C chemokine receptor type 4 (Homo sapiens, UniProt P51679); type: cell membranes, Membrane; settings: chem-1; also: in other assays of this panel Not Active means under 50% inhibition at 10 µM
T3 sequence (P51679 whole entry): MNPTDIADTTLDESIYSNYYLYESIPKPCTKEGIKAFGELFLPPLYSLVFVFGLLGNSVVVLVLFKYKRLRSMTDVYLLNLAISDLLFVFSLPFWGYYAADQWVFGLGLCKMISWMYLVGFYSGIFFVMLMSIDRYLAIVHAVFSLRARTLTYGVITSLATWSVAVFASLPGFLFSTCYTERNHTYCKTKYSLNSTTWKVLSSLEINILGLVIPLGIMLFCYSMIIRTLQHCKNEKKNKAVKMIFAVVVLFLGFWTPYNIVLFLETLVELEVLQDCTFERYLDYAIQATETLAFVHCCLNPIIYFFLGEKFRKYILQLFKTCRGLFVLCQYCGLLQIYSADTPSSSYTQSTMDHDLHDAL

Sequence of Estrogen receptor beta (Q92731 whole entry): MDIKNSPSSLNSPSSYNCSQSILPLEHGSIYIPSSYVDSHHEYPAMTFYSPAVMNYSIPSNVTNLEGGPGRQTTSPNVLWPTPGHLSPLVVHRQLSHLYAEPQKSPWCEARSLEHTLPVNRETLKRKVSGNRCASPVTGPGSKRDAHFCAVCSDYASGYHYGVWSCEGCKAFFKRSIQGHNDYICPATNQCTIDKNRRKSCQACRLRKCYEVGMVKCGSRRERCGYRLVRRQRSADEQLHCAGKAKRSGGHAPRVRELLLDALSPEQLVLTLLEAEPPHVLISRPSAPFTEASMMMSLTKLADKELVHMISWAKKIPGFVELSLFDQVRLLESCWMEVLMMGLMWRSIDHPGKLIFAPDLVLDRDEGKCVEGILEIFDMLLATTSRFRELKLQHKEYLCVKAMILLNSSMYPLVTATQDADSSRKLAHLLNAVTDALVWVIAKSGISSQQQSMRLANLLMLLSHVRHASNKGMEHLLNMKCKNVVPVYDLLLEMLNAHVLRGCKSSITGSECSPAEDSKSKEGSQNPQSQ
Sequence of D(3) dopamine receptor (P35462 whole entry): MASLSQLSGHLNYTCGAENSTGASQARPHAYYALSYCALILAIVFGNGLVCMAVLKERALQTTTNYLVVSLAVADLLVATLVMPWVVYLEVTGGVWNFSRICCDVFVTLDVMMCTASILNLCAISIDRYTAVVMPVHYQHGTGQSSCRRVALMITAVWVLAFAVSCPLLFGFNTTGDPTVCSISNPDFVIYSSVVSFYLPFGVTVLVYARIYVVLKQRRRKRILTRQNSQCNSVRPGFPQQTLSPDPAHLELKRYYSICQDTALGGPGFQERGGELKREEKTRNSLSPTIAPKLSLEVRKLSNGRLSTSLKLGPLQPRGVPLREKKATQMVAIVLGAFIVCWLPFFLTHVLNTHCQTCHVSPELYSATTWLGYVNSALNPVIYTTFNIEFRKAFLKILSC

Row | Compound | IC50 ([1]; cho-k1) | IC50 [2] | Ki [2] | IC50 (Estrogen receptor beta) | IC50 [3] | IC50 (D(3) dopamine receptor; read-out: IC50) | Ki (D(3) dopamine receptor) | IC50 [4] | IC50 ([1]; read-out: IC50) | Ki [1] | IC50 ([2]; read-out: IC50) | Ki ([2]; read-out: Ki) | IC50 (D(3) dopamine receptor; cho)
1 | NCCCNCCSP(=O)(O)O [AMIFOSTINE] | Not Active | Not Active | Not Active | Not Active | Not Active | 1930 nM | 655 nM | Not Active | – | – | – | – | –
2 | CN(C)CCC=C1c2ccccc2CCc2ccccc21 [AMITRIPTYLINE] | – | – | – | Not Active | Not Active | 182 nM | 62 nM | Not Active | 5.3 nM | 0.739 nM | 1680 nM | 1120 nM | –
3 | CC(=O)Oc1ccccc1C(=O)O [ASPIRIN] | Not Active | Not Active | Not Active | Not Active | Not Active | – | – | Not Active | – | – | – | – | Not Active
4 | CC(=O)OC[C@H]1O[C@@H](n2ncc(=O)[nH]c2=O)[C@H](OC(C)=O)[C@@H]1OC(C)=O [AZARIBINE] | Not Active | Not Active | Not Active | Not Active | Not Active | – | – | Not Active | – | – | – | – | Not Active
5 | C[C@H]1[C@H](NC(=O)/C(=N\OC(C)(C)C(=O)O)c2csc(N)n2)C(=O)N1S(=O)(=O)O [AZTREONAM] | Not Active | Not Active | Not Active | Not Active | Not Active | – | – | Not Active | – | – | – | – | Not Active
6 | O=C(O)CCNC(=O)c1ccc(/N=N/c2ccc(O)c(C(=O)O)c2)cc1 [BALSALAZIDE] | Not Active | Not Active | Not Active | Not Active | Not Active | – | – | Not Active | – | – | – | – | Not Active
7 | ClC(Cl)(Cl)Cl [CARBON TETRACHLORIDE] | Not Active | Not Active | Not Active | Not Active | Not Active | – | – | Not Active | – | – | – | – | Not Active
8 | CO/N=C(\C(=O)N[C@@H]1C(=O)N2C(C(=O)O)=C(COC(C)=O)CS[C@H]12)c1csc(N)n1 [CEFOTAXIME] | Not Active | Not Active | Not Active | Not Active | Not Active | – | – | Not Active | – | – | – | – | Not Active
9 | CNC1=Nc2ccc(Cl)cc2C(c2ccccc2)=[N+]([O-])C1 [CHLORDIAZEPOXIDE] | Not Active | Not Active | Not Active | Not Active | Not Active | – | – | Not Active | – | – | – | – | Not Active
10 | Cc1cc(O)cc(C)c1Cl [CHLOROXYLENOL] | Not Active | Not Active | Not Active | Not Active | Not Active | – | – | Not Active | – | – | – | – | Not Active
11 | CCCNC(=O)NS(=O)(=O)c1ccc(Cl)cc1 [CHLORPROPAMIDE] | Not Active | Not Active | Not Active | Not Active | Not Active | – | – | Not Active | – | – | – | – | Not Active
12 | NS(=O)(=O)c1cc(C2(O)NC(=O)c3ccccc32)ccc1Cl (stereo not drawn) [CHLORTHALIDONE] | Not Active | Not Active | Not Active | Not Active | Not Active | – | – | Not Active | – | – | – | – | Not Active
13 | O=C(O)CC(O)(CC(=O)O)C(=O)O [CITRIC ACID] | Not Active | Not Active | Not Active | Not Active | Not Active | – | – | Not Active | – | – | – | – | Not Active
14 | CN1CCN(C(c2ccccc2)c2ccccc2)CC1 [CYCLIZINE] | – | – | – | Not Active | Not Active | 2990 nM | 1020 nM | Not Active | 852 nM | 119 nM | 3130 nM | 2090 nM | –
